In assay [1] the target is T1, human dopamine D3 receptor (Homo sapiens, UniProt P35462).
T1 construct: expressed in transfected cells; host or cells: HEK-293 EBNA cells, transient transfection; membrane preparation
The assay is described as follows: Radioligand binding ([3H]-spiperone) to membranes of HEK-293 EBNA cells expressing human D3 receptor. The following applies: human D3, 0.5 nM [3H]-spiperone, HEK-293 EBNA membranes, 1 h at RT. The gist of the method: (§1)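 Membranes from HEK-293 EBNA cells transiently transfected with the receptor were incubated 1 h at RT with ten test concentrations (10 μM–0.1 nM) and ~0.7 nM [3H]-spiperone (D2), 0.5 nM [3H]-spiperone (D3) or 1.1 nM [3H]-ketanserin (5-HT2A). Nonspecific binding was set with 10 μM spiperone, bound radioactivity was read by filtration and scintillation, and Ki was taken from IC50 via Cheng-Prusoff.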

The target of assay [2] is T2, human dopamine D2 receptor (Homo sapiens, UniProt P14416).
T2 construct: expressed in transfected cells; host or cells: HEK-293 EBNA cells, transient transfection; membrane preparation
Kind of assay: Radioligand binding ([3H]-spiperone) to membranes of HEK-293 EBNA cells expressing human D2 receptor. As to conditions: human D2, 0.7 nM [3H]-spiperone, HEK-293 EBNA membranes, 1 h at RT. The gist of the method: as §1

Assay [3] concerns the target T3, human serotonin 5-HT2A receptor (Homo sapiens, UniProt P28223).
T3 construct: expressed in transfected cells; host or cells: HEK-293 EBNA cells, transient transfection; membrane preparation
The assay is described as follows: Radioligand binding ([3H]-ketanserin) to membranes of HEK-293 EBNA cells expressing human 5-HT2A receptor. As to conditions: 1.1 nM [3H]-ketanserin, HEK-293 EBNA membranes, 1 h at RT. The gist of the method:
as §1

pKi: −log10 of the molar value.

T3 sequence (P28223 whole entry): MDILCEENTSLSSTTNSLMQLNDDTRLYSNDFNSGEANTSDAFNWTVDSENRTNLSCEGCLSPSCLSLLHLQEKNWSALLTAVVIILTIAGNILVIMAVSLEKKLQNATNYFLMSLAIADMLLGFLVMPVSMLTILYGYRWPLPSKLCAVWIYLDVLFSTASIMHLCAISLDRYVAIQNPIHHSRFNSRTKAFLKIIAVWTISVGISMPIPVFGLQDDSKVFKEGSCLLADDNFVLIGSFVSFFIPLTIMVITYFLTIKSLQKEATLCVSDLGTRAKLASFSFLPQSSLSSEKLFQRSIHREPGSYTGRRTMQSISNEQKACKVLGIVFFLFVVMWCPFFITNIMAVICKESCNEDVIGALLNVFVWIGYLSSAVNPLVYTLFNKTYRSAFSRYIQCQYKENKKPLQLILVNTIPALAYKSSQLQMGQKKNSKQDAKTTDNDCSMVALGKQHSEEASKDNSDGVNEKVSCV
T1 sequence (P35462 whole entry): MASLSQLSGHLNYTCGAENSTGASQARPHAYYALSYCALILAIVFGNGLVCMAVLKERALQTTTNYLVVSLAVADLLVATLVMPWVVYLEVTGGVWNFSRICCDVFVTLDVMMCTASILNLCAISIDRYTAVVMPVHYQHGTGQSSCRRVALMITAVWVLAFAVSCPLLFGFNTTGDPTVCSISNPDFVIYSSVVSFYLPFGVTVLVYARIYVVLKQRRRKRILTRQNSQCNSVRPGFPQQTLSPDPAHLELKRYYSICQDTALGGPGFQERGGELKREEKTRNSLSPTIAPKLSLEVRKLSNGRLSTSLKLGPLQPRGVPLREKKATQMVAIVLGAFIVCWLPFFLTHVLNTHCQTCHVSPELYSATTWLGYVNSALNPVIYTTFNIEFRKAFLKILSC
T2 sequence (P14416 whole entry): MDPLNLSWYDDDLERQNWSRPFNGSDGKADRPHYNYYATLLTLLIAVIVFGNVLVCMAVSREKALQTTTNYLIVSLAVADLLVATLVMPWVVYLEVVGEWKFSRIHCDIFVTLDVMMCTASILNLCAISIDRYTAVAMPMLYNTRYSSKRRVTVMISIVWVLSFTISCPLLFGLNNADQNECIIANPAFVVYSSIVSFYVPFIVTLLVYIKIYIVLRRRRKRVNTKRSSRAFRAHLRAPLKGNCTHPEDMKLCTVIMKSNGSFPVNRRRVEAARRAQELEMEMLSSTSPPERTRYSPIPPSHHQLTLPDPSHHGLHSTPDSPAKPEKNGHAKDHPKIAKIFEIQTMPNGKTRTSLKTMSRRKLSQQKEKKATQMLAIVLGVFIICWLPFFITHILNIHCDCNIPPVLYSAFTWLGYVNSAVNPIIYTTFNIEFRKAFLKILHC

What is called pKi is the negative decadic logarithm of the Ki, by convention in mol/L. Regarding `O=C(CC1CCCCO1)N[C@H]1CC[C@H](CCN2CCN(c3noc4cc(Cl)ccc34)CC2)CC1` (stereo partly drawn) [Example 35, N-trans-(4-{2-[4-(6-Chloro-benzo[d]isoxazol-3-yl)-piperazin-1-yl]-ethyl}-cyclohexyl)-2-(tetrahydro-pyran-2-yl)-acetamide], the pKi is 7.76 in assay [1], 6.05 in assay [2] and 8.32 in assay [3].

In the case of `COC1(C)CCC(CC(=O)N[C@H]2CC[C@H](CCN3CCN(c4noc5cc(Cl)ccc45)CC3)CC2)CC1` (stereo partly drawn) [Example 39, N-trans-(4-{2-[4-(6-Chloro-benzo[d]isoxazol-3-yl)-piperazin-1-yl]-ethyl}-cyclohexyl)-2-(4-methoxy-4-methyl-cyclohexyl)-acetamide], the values for the pKi in assay [1], in assay [2] and in assay [3] were 7.63, 5.42 and 8.38, respectively.

For the compound `Cc1cc2c(N3CCN(CC[C@H]4CC[C@H](NC(=O)CC5CCCCO5)CC4)CC3)noc2cc1F` (stereo partly drawn) [Example 117, N-trans-(4-{2-[4-(6-Fluoro-5-methyl-benzo[d]isoxazol-3-yl)-piperazin-1-yl]-ethyl}-cyclohexyl)-2-(tetrahydro-pyran-2-yl)-acetamide], the pKi in assay [1] was 7.48; in assay [2], less than 5.70; in assay [3], 8.10.

With `CC(C)(O)CC(=O)N[C@H]1CC[C@H](CCN2CCN(c3noc4ccc(F)cc34)CC2)CC1` [Example 11, N-trans-(4-{2-[4-(5-Fluoro-benzo[d]isoxazol-3-yl)-piperazin-1-yl]-ethyl}-cyclohexyl)-3-hydroxy-3-methyl-butyramide], the pKi was 8.32 in assay [1], 6.32 in assay [2] and 7.62 in assay [3].

In the case of `O=C(CC1COCCO1)N[C@H]1CC[C@H](CCN2CCN(c3noc4ccc(F)cc34)CC2)CC1` (stereo partly drawn) [Example 15, 2-[1,4]Dioxan-2-yl-N-trans-(4-{2-[4-(5-fluoro-benzo[d]isoxazol-3-yl)-piperazin-1-yl]-ethyl}-cyclohexyl)-acetamide], the pKi is 8.20 in assay [1], 6.12 in assay [2] and 7.81 in assay [3].

`CC(C)OC1CCC(CC(=O)N[C@H]2CC[C@H](CCN3CCN(c4noc5cc(Cl)ccc45)CC3)CC2)CC1` (mixture of isomers) [Example 51, N-trans-(4-{2-[4-(6-Chloro-benzo[d]isoxazol-3-yl)-piperazin-1-yl]-ethyl}-cyclohexyl)-2-(4-isopropoxy-cyclohexyl)-acetamide]: the pKi in assay [1] was 7.98; in assay [2] it was 5.52; in assay [3], 8.47.

For the compound `CSCCC(=O)N[C@H]1CC[C@H](CCN2CCN(c3noc4cc(F)c(Cl)cc34)CC2)CC1` [Example 81, N-trans-(4-{2-[4-(5-Chloro-6-fluoro-benzo[d]isoxazol-3-yl)-piperazin-1-yl]-ethyl}-cyclohexyl)-3-methylsulfanyl-propionamide], the pKi in assay [1] is 8.36; in assay [2], 4.95; in assay [3] it was 8.28.

For the compound `CO[C@H]1CC[C@H](CC(=O)N[C@H]2CC[C@H](CCN3CCN(c4noc5cc(F)c(Cl)cc45)CC3)CC2)CC1` [Example 88, N-trans-(4-{2-[4-(5-Chloro-6-fluoro-benzo[d]isoxazol-3-yl)-piperazin-1-yl]-ethyl}-cyclohexyl)-2-trans-(4-methoxy-cyclohexyl)-acetamide], the results for the pKi in assay [1], in assay [2] and in assay [3] were 7.51, 4.95 and 7.78, respectively.

For the compound `O=C(CC1OCCCO1)N[C@H]1CC[C@H](CCN2CCN(c3noc4ccc(F)cc34)CC2)CC1` [Example 24, 2-[1,3]Dioxan-2-yl-N-trans-(4-{2-[4-(5-fluoro-benzo[d]isoxazol-3-yl)-piperazin-1-yl]-ethyl}-cyclohexyl)-acetamide], the pKi in assay [1] is 8.34; in assay [2], 5.97; in assay [3], 7.77.

With `COCC(=O)N[C@H]1CC[C@H](CCN2CCN(c3noc4cc(F)c(F)cc34)CC2)CC1` [Example 60, N-trans-(4-{2-[4-(5,6-Difluoro-benzo[d]isoxazol-3-yl)-piperazin-1-yl]-ethyl}-cyclohexyl)-2-methoxy-acetamide], the pKi was 7.69 in assay [1], 6.06 in assay [2] and 8.02 in assay [3].

Take `O=C(C[C@H]1C[C@H](CO)C1)N[C@H]1CC[C@H](CCN2CCN(c3noc4cc(F)c(Cl)cc34)CC2)CC1` [Example 79, N-trans-(4-{2-[4-(5-Chloro-6-fluoro-benzo[d]isoxazol-3-yl)-piperazin-1-yl]-ethyl}-cyclohexyl)-2-trans-(3-hydroxymethyl-cyclobutyl)-acetamide]: the pKi in assay [1] is 8.26; in assay [2], 5.16; in assay [3], 8.61.

In the case of `COC(C)C(=O)N[C@H]1CC[C@H](CCN2CCN(c3noc4cc(F)c(C)cc34)CC2)CC1` (stereo partly drawn) [Example 119, N-trans-(4-{2-[4-(6-Fluoro-5-methyl-benzo[d]isoxazol-3-yl)-piperazin-1-yl]-ethyl}-cyclohexyl)-2-methoxy-propionamide], the pKi in assay [1] is 7.28; in assay [2], 5.64; in assay [3], 8.00.

Regarding `CCOCC(=O)N[C@H]1CC[C@H](CCN2CCN(c3noc4cc(F)c(C)cc34)CC2)CC1` [Example 110, 2-Ethoxy-N-trans-(4-{2-[4-(6-fluoro-5-methyl-benzo[d]isoxazol-3-yl)-piperazin-1-yl]-ethyl}-cyclohexyl)-acetamide], the pKi in assay [1] was 7.50; in assay [2], 5.81; in assay [3], 8.00.

In the case of `O=C(N[C@H]1CC[C@H](CCN2CCN(c3noc4ccc(F)cc34)CC2)CC1)C1CCOCC1` [Example 7, Tetrahydro-pyran-4-carboxylic acid-trans-(4-{2-[4-(5-fluoro-benzo[d]isoxazol-3-yl)-piperazin-1-yl]-ethyl}-cyclohexyl)-amide], the values for the pKi in assay [1], in assay [2] and in assay [3] were 7.94, 6.18 and 7.86, respectively.

In the case of `COCCC(=O)N[C@H]1CC[C@H](CCN2CCN(c3noc4cc(F)c(F)cc34)CC2)CC1` [Example 57, N-trans-(4-{2-[4-(5,6-Difluoro-benzo[d]isoxazol-3-yl)-piperazin-1-yl]-ethyl}-cyclohexyl)-3-methoxy-propionamide], the values for the pKi in assay [1], in assay [2] and in assay [3] were 8.21, 6.40 and 7.88, respectively.

As to `COC1CCCC(C(=O)N[C@H]2CC[C@H](CCN3CCN(c4noc5ccc(F)cc45)CC3)CC2)C1` (stereo partly drawn) [Example 16, 3-Methoxy-cyclohexanecarboxylic acid N-trans-(4-{2-[4-(5-fluoro-benzo[d]isoxazol-3-yl)-piperazin-1-yl]-ethyl}-cyclohexyl)-amide], the pKi in assay [1] was 7.67; in assay [2], 5.84; in assay [3], 7.84.

Regarding `O=C(CO)N[C@H]1CC[C@H](CCN2CCN(c3noc4ccccc34)CC2)CC1` [Example 4, N-trans-{4-[2-(4-Benzo[d]isoxazol-3-yl-piperazin-1-yl)-ethyl]-cyclohexyl}-2-hydroxy-acetamide], the pKi in assay [1] is 7.78; in assay [2], 6.29; in assay [3], 8.47.

Regarding `Cc1cc2c(N3CCN(CC[C@H]4CC[C@H](NC(=O)CC5CC5)CC4)CC3)noc2cc1F` [Example 109, 2-Cyclopropyl-N-trans-(4-{2-[4-(6-fluoro-5-methyl-benzo[d]isoxazol-3-yl)-piperazin-1-yl]-ethyl}-cyclohexyl)-acetamide], the pKi in assay [1] is 7.84; in assay [2], 5.00; in assay [3], 7.49.

Take `O=C(CC1OCCCO1)N[C@H]1CC[C@H](CCN2CCN(c3noc4cc(F)c(F)cc34)CC2)CC1` [Example 69, N-trans-(4-{2-[4-(5,6-Difluoro-benzo[d]isoxazol-3-yl)-piperazin-1-yl]-ethyl}-cyclohexyl)-2-[1,3]dioxan-2-yl-acetamide]: the pKi was 7.88 in assay [1], 6.06 in assay [2] and 8.20 in assay [3].

Consider `COCC(=O)N[C@H]1CC[C@H](CCN2CCN(c3noc4cc(F)c(C)cc34)CC2)CC1` [Example 107, N-trans-(4-{2-[4-(6-Fluoro-5-methyl-benzo[d]isoxazol-3-yl)-piperazin-1-yl]-ethyl}-cyclohexyl)-2-methoxy-acetamide], for which the results for the pKi in assay [1], in assay [2] and in assay [3] were 7.70, 6.17 and 7.95, respectively.

On to `O=C(N[C@H]1CC[C@H](CCN2CCN(c3noc4cc(F)c(F)cc34)CC2)CC1)C1CCOCC1` [Example 67, Tetrahydro-pyran-4-carboxylic acid N-trans-(4-{2-[4-(5,6-difluoro-benzo[d]isoxazol-3-yl)-piperazin-1-yl]-ethyl}-cyclohexyl)-amide], for which the pKi in assay [1] is 7.52; in assay [2], 5.57; in assay [3] it was 8.11.

In the case of `CO[C@H]1CC[C@H](CC(=O)N[C@H]2CC[C@H](CCN3CCN(c4noc5cc(Cl)ccc45)CC3)CC2)CC1` [Example 31, N-trans-(4-{2-[4-(6-Chloro-benzo[d]isoxazol-3-yl)-piperazin-1-yl]-ethyl}-cyclohexyl)-2-trans-(4-methoxy-cyclohexyl)-acetamide], the results for the pKi in assay [1], in assay [2] and in assay [3] were 8.05, 5.30 and 8.54, respectively.

Take `COC(CC(=O)N[C@H]1CC[C@H](CCN2CCN(c3noc4cc(C)ccc34)CC2)CC1)OC` [Example 103, 3,3-Dimethoxy-N-trans-(4-{2-[4-(6-methyl-benzo[d]isoxazol-3-yl)-piperazin-1-yl]-ethyl}-cyclohexyl)-propionamide]: the values for the pKi in assay [1], in assay [2] and in assay [3] were 8.16, 6.69 and 8.64, respectively.
